Like-named read-outs stand apart in the source and are kept apart here.
How the values were obtained:
AKT1 WT = target: T1, AKT1 WT (Homo sapiens, UniProt P31749); assay: Live cell AKT1 WT target engagement by NanoBRET competitive probe displacement in HEK293 cells; type: binding; conditions: 2 h at 37° C., read-out: AKT1 WT IC50
T1 construct: expressed in transfected cells; host or cells: HEK293

[1] = tested on: LAPC4 prostate cancer cells, which express the AKT1 E17K allele; assay: Antiproliferative effects in LAPC4 cells (CellTiter Glo, 72 h); type: cell-based; conditions: Homo sapiens, LAPC4, 72 h, read-out: LAPC4 proliferation IC50
Method in brief: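 LAPC4 prostate cancer cells carrying AKT1 E17K, grown in IMDM with 12% FBS, were seeded at 1,000 cells/well and exposed to compound dilutions for 72 h. Viability was read as intracellular ATP by CellTiter Glo luminescence, and IC50 was fitted with a log(inhibitor) vs. response Hill equation.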

AKT1 E17K = target: T2, AKT1 E17K (Homo sapiens, UniProt P31749, E17K); assay: Live cell AKT1 E17K target engagement by NanoBRET competitive probe displacement in HEK293 cells; type: binding; conditions: 2 h at 37° C.
T2 construct: expressed in transfected cells; host or cells: HEK293
T2 sequence (P31749 whole entry E17K): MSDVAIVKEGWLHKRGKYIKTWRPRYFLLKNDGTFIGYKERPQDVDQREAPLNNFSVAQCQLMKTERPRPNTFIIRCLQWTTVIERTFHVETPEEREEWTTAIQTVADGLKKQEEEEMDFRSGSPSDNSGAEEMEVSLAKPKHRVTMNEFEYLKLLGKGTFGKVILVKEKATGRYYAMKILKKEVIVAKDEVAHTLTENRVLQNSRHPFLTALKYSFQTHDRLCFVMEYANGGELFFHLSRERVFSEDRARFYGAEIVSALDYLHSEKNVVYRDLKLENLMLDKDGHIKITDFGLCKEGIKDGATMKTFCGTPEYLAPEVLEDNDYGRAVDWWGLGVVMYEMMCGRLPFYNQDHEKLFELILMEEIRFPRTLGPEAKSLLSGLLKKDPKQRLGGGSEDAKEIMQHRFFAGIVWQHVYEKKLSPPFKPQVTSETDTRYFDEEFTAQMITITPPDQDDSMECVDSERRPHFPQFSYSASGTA
Method in brief: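 HEK293 cells transiently expressing kinase–NanoLuciferase fusions were treated with serial compound dilutions plus fluorescent ATP-competitive tracer at ~EC50, 2 h at 37 °C. Emission at 460 and 600 nm read after substrate and extracellular luciferase inhibitor; IC50 from Hill fit of E600/E460 BRET ratio.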

AKT2 = target: T3, AKT2 (Homo sapiens, UniProt P31751); assay: Live cell AKT2 target engagement by NanoBRET competitive probe displacement in HEK293 cells; type: binding; conditions: 2 h at 37° C., read-out: AKT2 IC50
T3 construct: expressed in transfected cells; host or cells: HEK293
T3 sequence (P31751 whole entry): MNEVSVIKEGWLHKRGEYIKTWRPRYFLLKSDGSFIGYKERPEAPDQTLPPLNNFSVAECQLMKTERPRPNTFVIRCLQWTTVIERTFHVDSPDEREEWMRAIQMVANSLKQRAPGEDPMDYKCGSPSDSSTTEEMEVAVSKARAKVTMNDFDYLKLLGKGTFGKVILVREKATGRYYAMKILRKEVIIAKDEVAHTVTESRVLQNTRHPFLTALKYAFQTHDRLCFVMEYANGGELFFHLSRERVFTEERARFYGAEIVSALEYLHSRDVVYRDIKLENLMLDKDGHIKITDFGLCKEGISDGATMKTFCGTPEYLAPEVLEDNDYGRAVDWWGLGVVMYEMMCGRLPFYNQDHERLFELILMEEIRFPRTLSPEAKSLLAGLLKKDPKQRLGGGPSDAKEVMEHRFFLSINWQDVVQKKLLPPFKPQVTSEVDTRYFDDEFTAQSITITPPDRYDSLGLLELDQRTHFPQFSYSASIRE

[2] = NanoBRET competitive probe displacement, live HEK293 cells
[3] = NanoBRET live cell target engagement, HEK293 cells

T1 sequence (P31749 whole entry): as the sequence (P31749 whole entry E17K) above, with K17E counted along it

Row | SMILES | IC50 (AKT1 WT; [2]) [nM] | IC50 [1] [nM] | IC50 (AKT1 E17K; [2]) [nM] | IC50 (AKT2; [2]) [nM] | IC50 (AKT1 WT; [3]) [nM] | IC50 (AKT1 E17K; [3]) [nM] | IC50 (AKT2; [3]) [nM]
1 | Nc1ncccc1-c1nc2ccc(-n3cccn3)nc2n1-c1ccc2c(c1)CC[C@@H]2NC1CN(C(=O)C2CC2)C1 [Compound 441] | 21.7 | 3710 | > 1000 | 1340 | – | – | –
2 | Nc1ncccc1-c1nc2ccc(-n3ccc(N4CCOCC4)n3)nc2n1-c1ccc2c(c1)CC[C@@H]2NC1CCN(C(=O)C2CC2)CC1 [Compound 488] | 7.99 | 624 | 30.6 | 98 | – | – | –
3 | Nc1ncccc1-c1nc2ccc(-n3nccn3)nc2n1-c1ccc2c(c1)CC[C@@H]2NC(=O)c1ccc(C2CC2)nc1 [Compound 491] | 5.37 | 285 | 23.6 | 351 | – | – | –
4 | COCCOc1ccn(-c2ccc3nc(-c4cccnc4N)n(-c4ccc5c(c4)CC[C@@H]5NC4CCN(C(=O)C5CC5)CC4)c3n2)n1 [Compound 504] | 14.3 | 4410 | > 1000 | 665 | – | – | –
5 | Nc1ncccc1-c1nc2ccc(-n3ccc(OCCN4CCOCC4)n3)nc2n1-c1ccc2c(c1)CC[C@@H]2NC1CCN(C(=O)C2CC2)CC1 [Compound 505] | 17.6 | 4360 | 485 | 547 | – | – | –
6 | Nc1ncccc1-c1nc2ccc(-n3cccn3)nc2n1-c1ccc2c(c1)CC[C@@H]2N [Example 2, (S)-3-(3-(1-amino-2,3-dihydro-1H-inden-5-yl)-5-(1H-pyrazol-1-yl)-3H-imidazo[4,5-b]pyridin-2-yl)pyridin-2-amine] | – | 8980 | – | – | 61.9 | > 1000 | 858
